Source: US8822535B2 (priority 2005, dated 2014)
Where two headings read alike, the source gives them in different places.

Key:
[1] = test system: zebrafish (D. rerio) embryos; experiment: Zebrafish embryo heart rate screening assay; type: in vivo
Description: These embryos are transparent, allowing one to view, using a dissecting microscope with a 4-20 times power lense, the heart beat and resultant blood flow into the main vessel along the back and into the tail. Heart rate in these animals is an indicator of the metabolic activity of the organism, such that a reduction in the heart rate signifies a reduction in metabolism. Embryos were dissected from their egg casings and distributed five per well in flat bottomed polystyrene tissue culture plates and incubated in 1 mL of standard fish water. The fishwater is composed of 1 teaspoon Instant Ocean (artificial sea water mixture, Aquarium Systems, Inc.) per 5 gallons. Calcium chloride is adjusted to 150 ppm and sodium bicarbonate to ˜100 ppm.

mice [2] = type: in vivo, mouse (C57BL6/J)
Protocol: The same flow rates were used as described above (i.e., […] in a 0.5 L chamber).
Experiments were conducted to test the ability of a mouse in a ‘hibernation-like’ state to survive in conditions where it would normally die. The adverse condition was hypoxia, which the literature states that mice (C57BL6/J males) can live in for a maximum of 20 minutes at 5% Oxygen.
The hypoxic exposure was timed (indicated below) and viability of the mice was determined.

mice [3] = type: in vivo, mouse (C57Bl/6)
dogs = experiment: Gas matrix: metabolic flexibility in altered gas environments, dogs; type: in vivo, dog; conditions: 0.85% in room air, mask, room temperature (22° C.)
Protocol: Metabolic flexibility was evaluated in mice rats and dogs using altered gas environments. Three parameters were used to define this reduction in metabolism including changes in carbon dioxide production, oxygen consumption measured by respirometry, and core temperature as measured using telemetry. In experiments with mice and rats the animals were placed into sealed chambers with one gas import and one gas export. For dogs a mask was placed over the snout of the animal with two hoses (import and export) attached to the mask. The flow rate of gas for each of the animals mice—500 cc per minute, rats—2 liters per minute, and dogs 40 liters per minute. Each atmosphere was constructed from compressed gas by dilution into room air unless otherwise noted. For rat and mouse experiments the ambient temperature was 7 to 10° C. during exposure to the test gases. For dogs ambient temperature was room temperature (22° C.).
Evidence of depression in metabolic rate of greater than 5-fold as judged by carbon dioxide production or oxygen consumption during a 6-hour treatment is described by “Yes”; […]; “N/D” denotes experiments not done. The temperature drop in the dog experiment (Carbon dioxide+low oxygen+Helium) was approximately 1.5° C. over the course of 30 minutes of exposure. This drop in temperature was considered significant because the dog was 12 kg and no such temperature drop was seen during extensive baseline recording of the animal in room air.

mice [4] = experiment: Cyanide exposure experiment in mice; type: in vivo, mouse; conditions: 80 ppm in room air at room temperature
Protocol: To measure metabolic effects of HCN, mice were exposed to increasing concentrations of HCN starting at 1 ppm. Oxygen (O2) consumption, carbon dioxide (CO2) production, body core temperature (BCT) and behavior were measured or evaluated. […]. A metabolic effect is defined as a 10% change in less than 10 minutes in any of the assay values described above.

[5] = in vivo; cited from earlier work

S [H2S, hydrogen sulfide]
heart rate after recovery ([1]; 24 hours after initial exposure, solution replaced with normal fishwater after five hours): 160-200 beats per minute | heart beats ([1]; 48 hour old embryos, hydrogen sulfide-containing fishwater (approximately 0.1 molar), 2-3 hours following exposure): 60-80 beats per minute | Time in Hypoxia (mice [2]; ambient 20° C., 5 hrs in 80 ppm H2S prior, 4% oxygen, result life): 28 min | Time in Hypoxia (mice [2]; ambient 20° C., 5 hrs in 80 ppm H2S prior, 5.00% oxygen, result life): 60 min | Time in Hypoxia (mice [2]; ambient 20° C., 5 hrs in 80 ppm H2S prior, 5.20% oxygen, result life): 11 min | Time in Hypoxia (mice [2]; ambient 20° C., 5.5 hrs in 80 ppm H2S prior, 5.00% oxygen, result life): 25 min | Time in Hypoxia (mice [2]; ambient 24° C., 80 ppm H2S simultaneous with hypoxia, 5.10% oxygen, result dead): 10 min | Time in Hypoxia (mice [2]; ambient 24° C., 8 minutes in 80 ppm H2S prior, 4.00% oxygen, result dead): 8 min | Time in Hypoxia (mice [2]; ambient 24° C., 8 minutes in 80 ppm H2S prior, 4.50% oxygen, result dead): 23 min | Time in Hypoxia (mice [2]; ambient 24° C., 8 minutes in 80 ppm H2S prior, 5% oxygen, result dead): 20 min | Time in Hypoxia (mice [2]; ambient 24° C., 8 minutes in 80 ppm H2S prior, 5.00% oxygen, result life): 50 min | Time in Hypoxia (mice [2]; ambient 24° C., 10 minutes in 90 ppm H2S prior, 5% oxygen, result dead): 56 min | Time in Hypoxia (mice [2]; ambient 30° C., 8 minutes in 80 ppm H2S prior, 4.50% oxygen, result dead): 6 min | time survived in hypoxia (mice [2]; pre-equilibrated to 80 ppm H2S for 3 hours, 5.2% oxygen, still doing well 3 weeks later): 11 min | drop in CO2 production during hypoxia from pre-exposure level (mice [3]; 150 ppm H2S 20 minutes, then 5% O2 for several hours (FIG. 25)): approximately 50 fold | CO2 output (mice [3]; 150 ppm H2S 20 minutes, then several hours of 5% O2, pre-exposure approximately 2500 ppm): approximately 50 ppm | survival time at lethal oxygen tensions (mice [3]; 150 ppm H2S prior to oxygen tension reduced to between 5% and 2.5% (FIG. 24)): at least 60 minutes | reduction in CO2 evolution (mice [3]; pre-treatment with H2S, new lower baseline): 50-60% | depression in metabolic rate, Dog (dogs): No 0.85% (“No” (reduction or less than a 5-fold reduction in these values is described as such) | core temperature (mice [4]): approximately 28 °C | LD50 [5]: approximately 700 ppm | adverse effects, gross and histopathological examination [5]: no observed adverse effect | behavioral toxicity [5]: Significant reductions in motor activity, water maze performance and body temperature | perinatal toxicity [5]: no neuropathological effects | tolerability [5]: innocuous
